Reference: US20260294915A1, “COMBINATION THERAPY COMPRISING A MAT2A INHIBITOR AND A TOPOISOMERASE INHIBITOR, A SPLICING INHIBITOR SULFONAMIDE, OR A KIF18 INHIBITOR” (IDEAYA BIOSCIENCES, INC., priority 2023, published 2026)
Marks after values point to notes of the source that are not given here.

What was measured:
Test in all cases: 10-day proliferation (CTG), SPLAM titration + 1000 nM Compound A, Bliss (Example 5; Tables 12-19)
Assay type in all cases: cell-based
[1] = tested on: SW900; design: key: GDI scale -100 to 100; 0 = cell number at T0; <0 cytotoxic; conditions: for GDI (growth death index), single agent Cmpd A: SW900, 1000 nM Compound A; for GDI: alone or + 1 uM Cmpd A
Experimental: Synergy was measured across the Indisulam titration with 1000 nM Compound A by Bliss Independence analysis. Bliss scores >10 are indicated by “*” and are considered synergistic. […] Synergy as reported using Bliss may be underrepresented within cytotoxic dose ranges. Growth death index values are shown for the combination titration and each single agent Compound A (Cmpd A) and Indisulam on a scale of −100 to 100 with the midpoint (0) being the number of cells at the beginning of the combination (T0). Scores less than 0 are indicated with “**” and are representative of a cytotoxic response. Bliss and GDI values are shown for five MTAP-deficient cell lines: NCI-1H838 (12A), SW900 (12B), RT112/84 (12C), UMUC5 (121D), and UMUC11 (12E).
(§1) A 10-day proliferation assay was performed in a panel of 5 MTAP-deficient and 2 wild type non-small cell lung and bladder cancer cell lines. Optimal cell seeding for all cell lines was determined by assessing the growth over a range of seeding densities in a 384-well format to identify conditions that permitted proliferation for 10 days. Cells were then plated at the optimal seeding density and treated with 20-point, two-fold dilution series of each of four structurally different SPLAMs in combination with a 1000 nM fixed concentration of Compound A. Single agent titrations for Compound A and each SPLAM were included for comparison. Concentrations tested for each SPLAM alone or in combination ranged from 0.04 nM to 20,000 nM. A plate of cells was harvested at the time of compound addition to quantify the number of cells at the start of the combination (T0). For cell quantification, the harvested cells were lysed with Promega CellTiter-Glo (CTG) reagent according to the manufacturer's protocol and the chemiluminescent signal was detected as described in Example 1 above. Cells were incubated with the drug combinations at 37° C. with 5% CO2 for 10 days. Cells were then lysed with CTG and the chemiluminescent signal was measured.
(§2) CTG values obtained after the 10-day treatment were background subtracted and expressed as a percent of the T0 value set at 100%. Data were plotted against compound concentration and fit with a four-parameter equation to generate single agent dose response curves. Percent inhibition was determined for each combination and single agent concentration compared to a DMSO control. In addition, the overall net growth or death of the cells was calculated and reported as a growth death index (GDI) value on a scale of −100 to 100 with the midpoint (0) being the number of cells at the beginning of the combination (T0).
(§3) Predicted inhibition was calculated using (Ea+Eb)−(Ea*Eb) where E equals the effect (inhibition) of each single agent (a and b). A difference between the observed inhibition percentage and the predicted inhibition percentage greater than 10% was considered synergistic. A Bliss score was only reported for combinations eliciting >20% growth inhibition (GDI value <80). Since Bliss is calculated based on growth inhibition, scores within cytotoxic dose ranges may not accurately reflect synergistic cytoxicity.
Synergy was measured across the E7820 titration with 1000 nM Compound A by Bliss Independence analysis. Bliss scores >10 are indicated by “*” and are considered synergistic. […] Synergy as reported using Bliss may be underrepresented within cytotoxic dose ranges. Growth death index values are shown for the combination titration and each single agent Compound A (Cmpd A) and Indisulam on a scale of −100 to 100 with the midpoint (0) being the number of cells at the beginning of the combination (T0). Scores less than 0 are indicated by “**” and are representative of a cytotoxic response. Bliss and GDI values are shown for five MTAP-deficient cell lines: NCI-1H838 (14A), SW900 (14B), RT112/84 (14C), UMUC5 (141)), and UMUC11 (14E).
Synergy was measured across the Chloroquinoxaline Sulfonamide titration with 1000 nM Compound A by Bliss Independence analysis.

[2] = tested on: NCI-H520; design: key: −100 to 100; 0 = cell number at T0, <0 = cytotoxic; conditions: for GDI (growth death index), single agent Cmpd A: NCI-H520, 1000 nM Compound A
Experimental: as §1, §2, §3
(§4) Synergy was measured across the Indisulam titration with 1000 nM Compound A by Bliss Independence analysis. Bliss scores >10 are indicated by “*” and are considered synergistic. […] Synergy as reported using Bliss may be underrepresented within cytotoxic dose ranges. Growth death index values are shown for the combination titration and each single agent Compound A (Cmpd A) and Indisulam on a scale of −100 to 100 with the midpoint (0) being the number of cells at the beginning of the combination (T0). Scores less than 0 are highlighted black and are representative of a cytotoxic response. Bliss and GDI values are shown for five MTAP-deficient cell lines: NCI-H520 (13A), TCCSUP (13B).
(§5) Synergy was measured across the E7820 titration with 1000 nM Compound A by Bliss Independence analysis. Bliss scores >10 are indicated by “*” and are considered synergistic. […] Synergy as reported using Bliss may be underrepresented within cytotoxic dose ranges. Growth death index values are shown for the combination titration and each single agent Compound A (Cmpd A) and Indisulam on a scale of −100 to 100 with the midpoint (0) being the number of cells at the beginning of the combination (T0). Scores less than 0 are indicated by “**” and are representative of a cytotoxic response. Bliss and GDI values are shown for five MTAP-deficient cell lines: NCI-H520 (15A), TCCSUP (15B).
(§6) Synergy was measured across the Chloroquinoxaline Sulfonamide titration with 1000 nM Compound A by Bliss Independence analysis. Bliss scores >10 are indicated by and are considered synergistic.

[3] = tested on: TCCSUP; design: key: −100 to 100; 0 = cell number at T0, <0 = cytotoxic; conditions: for GDI (growth death index), single agent Cmpd A: TCCSUP, 1000 nM Compound A
Experimental: as §1, §2, §3, §4, §5, §6

[4] = SPLAM 0.04 nM, alone or + 1 uM Cmpd A
[5] = SPLAM 0.1 nM, alone or + 1 uM Cmpd A
[6] = SPLAM 0.2 nM, alone or + 1 uM Cmpd A
[7] = SPLAM 0.3 nM, alone or + 1 uM Cmpd A
[8] = SPLAM 0.6 nM, alone or + 1 uM Cmpd A
[9] = SPLAM 1.2 nM, alone or + 1 uM Cmpd A
[10] = SPLAM 2.4 nM, alone or + 1 uM Cmpd A
[11] = SPLAM 4.9 nM, alone or + 1 uM Cmpd A
[12] = SPLAM 9.8 nM, alone or + 1 uM Cmpd A
[13] = SPLAM 19.5 nM, alone or + 1 uM Cmpd A
[14] = SPLAM 39.1 nM, alone or + 1 uM Cmpd A
[15] = SPLAM 78.1 nM, alone or + 1 uM Cmpd A
[16] = SPLAM 156.3 nM, alone or + 1 uM Cmpd A
[17] = SPLAM 312.5 nM, alone or + 1 uM Cmpd A
[18] = SPLAM 625 nM, alone or + 1 uM Cmpd A
[19] = SPLAM 1250 nM, alone or + 1 uM Cmpd A
[20] = SPLAM 2500 nM, alone or + 1 uM Cmpd A
[21] = SPLAM 5000 nM, alone or + 1 uM Cmpd A
[22] = SPLAM 10000 nM, alone or + 1 uM Cmpd A
[23] = SPLAM 20000 nM, alone or + 1 uM Cmpd A

Compound: Nc1nc(=O)n(-c2ccccc2Cl)c2nc(C(F)(F)F)ccc12 [Compound A]
- GDI (growth death index), single agent Cmpd A ([1]; Table 16B): 100
- GDI (growth death index), single agent Cmpd A ([1]; Table 18B): 100
- GDI (growth death index), single agent Cmpd A ([2]; Table 17A): 100
- GDI (growth death index), single agent Cmpd A ([2]; Table 19A): 100
- GDI ([2]; single agent Cmpd A, 1000 nM): 100
- GDI (growth death index), single agent Cmpd A ([3]; Table 17B): 84
- GDI (growth death index), single agent Cmpd A ([3]; Table 19B): 84
- GDI ([3]; single agent Cmpd A, 1000 nM): 84

Compound: Cc1ccc(NS(=O)(=O)c2cccc(C#N)c2)c2[nH]cc(C#N)c12 [Compound E7820, 3-cyano-N-(3-cyano-4-methyl-1H-indol-7-yl)benzenesulfonamide]
- GDI ([1]; SPLAM 0.04 nM): 97
- GDI ([1]; SPLAM 0.1 nM): 100
- GDI ([1]; SPLAM 0.2 nM): 99
- GDI ([1]; SPLAM 0.3 nM): 100
- GDI ([1]; SPLAM 0.6 nM): 100
- GDI ([1]; SPLAM 1.2 nM): 100
- GDI ([1]; SPLAM 2.4 nM): 100
- GDI ([1]; SPLAM 4.9 nM): 100
- GDI ([1]; SPLAM 9.8 nM): 100
- GDI ([1]; SPLAM 19.5 nM): 100
- GDI ([1]; SPLAM 39.1 nM): 100
- GDI ([1]; SPLAM 78.1 nM): 100
- GDI ([1]; SPLAM 156.3 nM): 100
- GDI ([1]; SPLAM 312.5 nM): 28
- GDI ([1]; SPLAM 625 nM): −7**
- GDI ([1]; SPLAM 1250 nM): −37**
- GDI ([1]; SPLAM 2500 nM): −56**
- GDI ([1]; SPLAM 5000 nM): −47**
- GDI ([1]; SPLAM 10000 nM): −70**
- GDI ([1]; SPLAM 20000 nM): −59**
- GDI [2, 4]: 100
- GDI [2, 5]: 100
- GDI [2, 6]: 100
- GDI [2, 7]: 100
- GDI [2, 8]: 100
- GDI [2, 9]: 100
- GDI [2, 10]: 100
- GDI [2, 11]: 100
- GDI [2, 12]: 100
- GDI [2, 13]: 100
- GDI [2, 14]: 100
- GDI [2, 15]: 100
- GDI [2, 16]: 100
- GDI [2, 17]: 82
- GDI [2, 18]: 54
- GDI [2, 19]: 32
- GDI [2, 20]: 21
- GDI [2, 21]: 11
- GDI [2, 22]: 8
- GDI [2, 23]: 5
- GDI [3, 4]: 100
- GDI [3, 5]: 100
- GDI [3, 6]: 100
- GDI [3, 7]: 100
- GDI [3, 8]: 100
- GDI [3, 9]: 100
- GDI [3, 10]: 100
- GDI [3, 11]: 100
- GDI [3, 12]: 100
- GDI [3, 13]: 100
- GDI [3, 14]: 100
- GDI [3, 15]: 100
- GDI [3, 16]: 100
- GDI [3, 17]: 100
- GDI [3, 18]: 100
- GDI [3, 19]: 100
- GDI [3, 20]: 100
- GDI [3, 21]: 92
- GDI [3, 22]: 91
- GDI [3, 23]: 78

Compound: NS(=O)(=O)c1ccc(S(=O)(=O)Nc2cccc3c(Cl)c[nH]c23)cc1 [Indisulam, N-(3-chloro-1H-indol-7-yl)benzene-1,4-disulfonamide]
- GDI ([1]; SPLAM 0.04 nM): 100
- GDI ([1]; SPLAM 0.1 nM): 98
- GDI ([1]; SPLAM 0.2 nM): 94
- GDI ([1]; SPLAM 0.3 nM): 100
- GDI ([1]; SPLAM 0.6 nM): 100
- GDI ([1]; SPLAM 1.2 nM): 100
- GDI ([1]; SPLAM 2.4 nM): 100
- GDI ([1]; SPLAM 4.9 nM): 100
- GDI ([1]; SPLAM 9.8 nM): 100
- GDI ([1]; SPLAM 19.5 nM): 100
- GDI ([1]; SPLAM 39.1 nM): 100
- GDI ([1]; SPLAM 78.1 nM): 100
- GDI ([1]; SPLAM 156.3 nM): 100
- GDI ([1]; SPLAM 312.5 nM): 34
- GDI ([1]; SPLAM 625 nM): −3**
- GDI ([1]; SPLAM 1250 nM): −33**
- GDI ([1]; SPLAM 2500 nM): −61**
- GDI ([1]; SPLAM 5000 nM): −56**
- GDI ([1]; SPLAM 10000 nM): −58**
- GDI ([1]; SPLAM 20000 nM): −60**
- GDI [2, 4]: 95
- GDI [2, 5]: 100
- GDI [2, 6]: 100
- GDI [2, 7]: 100
- GDI [2, 8]: 100
- GDI [2, 9]: 100
- GDI [2, 10]: 100
- GDI [2, 11]: 100
- GDI [2, 12]: 100
- GDI [2, 13]: 100
- GDI [2, 14]: 100
- GDI [2, 15]: 100
- GDI [2, 16]: 100
- GDI [2, 17]: 97
- GDI [2, 18]: 45
- GDI [2, 19]: 25
- GDI [2, 20]: 12
- GDI [2, 21]: 6
- GDI [2, 22]: 6
- GDI [2, 23]: 2
- GDI [3, 4]: 100
- GDI [3, 5]: 100
- GDI [3, 6]: 100
- GDI [3, 7]: 100
- GDI [3, 8]: 100
- GDI [3, 9]: 100
- GDI [3, 10]: 100
- GDI [3, 11]: 100
- GDI [3, 12]: 100
- GDI [3, 13]: 100
- GDI [3, 14]: 100
- GDI [3, 15]: 100
- GDI [3, 16]: 100
- GDI [3, 17]: 100
- GDI [3, 18]: 100
- GDI [3, 19]: 100
- GDI [3, 20]: 100
- GDI [3, 21]: 100
- GDI [3, 22]: 86
- GDI [3, 23]: 70
